# Measured values: patent publication US5604234A, “Substituted thiol macrolactam immunomodulators” (Abbott Laboratories, priority 1995, dated 1997)
# pIC50: −log10 of the molar value.
# Experiments:
# [1] = system: human mixed lymphocyte reaction (MLR); assay: human mixed lymphocyte reaction (MLR) assay, immunosuppressant activity; assay type: cell-based; details: Table 2
# Experimental: The immunosuppressant activity of the compounds of the present invention was determined using the human mixed lymphocyte reaction (MLR) assay described by Kino, T. et al. in Transplantation Proceedings, XIX(5):36-39,Suppl. 6 (1987).
# [2] = system: human mixed lymphocyte reaction (MLR); assay: human mixed lymphocyte reaction (MLR), serum free variation; assay type: cell-based; details: Homo sapiens, Lymphocyte, serum-free medium AIM V, Table 3
# Outline: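 Serum-free variant of the human MLR: cultured in AIM V medium in place of RPMI 1640 with 10% heat-inactivated FBS. Responder and stimulator PBMCs, pooled from four donors, at final 5×10^5/mL and 2×10^6/mL respectively.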
Structure (SMILES),"pIC50 ([1]; Homo sapiens, Lymphocyte)",pIC50 [2],also measured
"CC[C@@H]1/C=C(\C)C[C@H](C)C[C@H](OC)[C@H]2O[C@@](O)(C(=O)C(=O)N3CCCC[C@H]3C(=O)O[C@H](/C(C)=C/[C@@H]3CC[C@H]([S+]([O-])c4ccccc4)[C@H](OC)C3)[C@H](C)[C@@H](O)CC1=O)[C@H](C)C[C@@H]2OC (single isomer, unassigned) [Example 133B]",–,–,pIC50 [1]: 8.19
CCC1C=C(C)CC(C)CC(OC)C2OC(O)(C(=O)C(=O)N3CCCCC3C(=O)OC(C(C)=CC3CCC(SCCC(=O)OCc4ccccc4)C(OC)C3)C(C)C(O)CC1=O)C(C)CC2OC (stereo not shown) [Example 18],7.73,–,–
CCOC(CNC(=O)S[C@H]1CC[C@@H](/C=C(\C)[C@H]2OC(=O)[C@@H]3CCCCN3C(=O)C(=O)[C@]3(O)O[C@H]([C@@H](OC)C[C@@H](C)C/C(C)=C/[C@@H](CC)C(=O)C[C@H](O)[C@H]2C)[C@@H](OC)C[C@H]3C)C[C@H]1OC)OCC [Example 104],–,8.60,–
CC[C@@H]1/C=C(\C)C[C@H](C)C[C@H](OC)[C@H]2O[C@@](O)(C(=O)C(=O)N3CCCC[C@H]3C(=O)O[C@H](/C(C)=C/[C@@H]3CC[C@H](SC(=O)c4ccccc4OC(C)=O)[C@H](OC)C3)[C@H](C)[C@@H](O)CC1=O)[C@H](C)C[C@@H]2OC [Example 112],–,9.31,–
CC[C@@H]1/C=C(\C)C[C@H](C)C[C@H](OC)[C@H]2O[C@@](O)(C(=O)C(=O)N3CCCC[C@H]3C(=O)O[C@H](/C(C)=C/[C@@H]3CC[C@H](SC(=O)c4cccnc4)[C@H](OC)C3)[C@H](C)[C@@H](O)CC1=O)[C@H](C)C[C@@H]2OC [Example 113],–,9.82,–
CC[C@@H]1/C=C(\C)C[C@H](C)C[C@H](OC)[C@H]2O[C@@](O)(C(=O)C(=O)N3CCCC[C@H]3C(=O)O[C@H](/C(C)=C/[C@@H]3CC[C@H](SC(=O)c4ccncc4)[C@H](OC)C3)[C@H](C)[C@@H](O)CC1=O)[C@H](C)C[C@@H]2OC [Example 114],–,9.85,–
CC[C@@H]1/C=C(\C)C[C@H](C)C[C@H](OC)[C@H]2O[C@@](O)(C(=O)C(=O)N3CCCC[C@H]3C(=O)O[C@H](/C(C)=C/[C@@H]3CC[C@H](SC(=O)CNC(C)=O)[C@H](OC)C3)[C@H](C)[C@@H](O)CC1=O)[C@H](C)C[C@@H]2OC [Example 115],–,10.70,–
CC[C@@H]1/C=C(\C)C[C@H](C)C[C@H](OC)[C@H]2O[C@@](O)(C(=O)C(=O)N3CCCC[C@H]3C(=O)O[C@H](/C(C)=C/[C@@H]3CC[C@H](SC(=O)CCNC(C)=O)[C@H](OC)C3)[C@H](C)[C@@H](O)CC1=O)[C@H](C)C[C@@H]2OC [Example 116],–,8.51,–
CC[C@@H]1/C=C(\C)C[C@H](C)C[C@H](OC)[C@H]2O[C@@](O)(C(=O)C(=O)N3CCCC[C@H]3C(=O)O[C@H](/C(C)=C/[C@@H]3CC[C@H](SC(=O)c4ccccc4NC(C)=O)[C@H](OC)C3)[C@H](C)[C@@H](O)CC1=O)[C@H](C)C[C@@H]2OC [Example 118],–,8.60,–
CC[C@@H]1/C=C(\C)C[C@H](C)C[C@H](OC)[C@H]2O[C@@](O)(C(=O)C(=O)N3CCCC[C@H]3C(=O)O[C@H](/C(C)=C/[C@@H]3CC[C@H](SC(=O)c4ccccc4C#N)[C@H](OC)C3)[C@H](C)[C@@H](O)CC1=O)[C@H](C)C[C@@H]2OC [Example 119],–,8.52,–
CC[C@@H]1/C=C(\C)C[C@H](C)C[C@H](OC)[C@H]2O[C@@](O)(C(=O)C(=O)N3CCCC[C@H]3C(=O)O[C@H](/C(C)=C/[C@@H]3CC[C@H](SC(=O)c4ccccn4)[C@H](OC)C3)[C@H](C)[C@@H](O)CC1=O)[C@H](C)C[C@@H]2OC [Example 120],–,8.92,–
CC[C@@H]1/C=C(\C)C[C@H](C)C[C@H](OC)[C@H]2O[C@@](O)(C(=O)C(=O)N3CCCC[C@H]3C(=O)O[C@H](/C(C)=C/[C@@H]3CC[C@H](SC(=O)CNC(N)=O)[C@H](OC)C3)[C@H](C)[C@@H](O)CC1=O)[C@H](C)C[C@@H]2OC [Example 121],–,8.59,–
CC[C@@H]1/C=C(\C)C[C@H](C)C[C@H](OC)[C@H]2O[C@@](O)(C(=O)C(=O)N3CCCC[C@H]3C(=O)O[C@H](/C(C)=C/[C@@H]3CC[C@H](SC(=O)[C@@H](NC(C)=O)[C@@H](C)O)[C@H](OC)C3)[C@H](C)[C@@H](O)CC1=O)[C@H](C)C[C@@H]2OC [Example 122],–,8.82,–
CC[C@@H]1/C=C(\C)C[C@H](C)C[C@H](OC)[C@H]2O[C@@](O)(C(=O)C(=O)N3CCCC[C@H]3C(=O)O[C@H](/C(C)=C/[C@@H]3CC[C@H](Sc4ccccc4)[C@H](OC)C3)[C@H](C)[C@@H](O)CC1=O)[C@H](C)C[C@@H]2OC [Example 132],8.47,–,–

# The next lines start with results.
"pIC50 ([1]; Homo sapiens, Lymphocyte)",pIC50 [2],Structure (SMILES),also measured
7.90,–,"CC[C@@H]1/C=C(\C)C[C@H](C)C[C@H](OC)[C@H]2O[C@@](O)(C(=O)C(=O)N3CCCC[C@H]3C(=O)O[C@H](/C(C)=C/[C@@H]3CC[C@H]([S+](C)[O-])[C@H](OC)C3)[C@H](C)[C@@H](O)CC1=O)[C@H](C)C[C@@H]2OC (single isomer, unassigned) [Example 127]",–
8.21,–,"CC[C@@H]1/C=C(\C)C[C@H](C)C[C@H](OC)[C@H]2O[C@@](O)(C(=O)C(=O)N3CCCC[C@H]3C(=O)O[C@H](/C(C)=C/[C@@H]3CC[C@H]([S+]([O-])c4ccccc4)[C@H](OC)C3)[C@H](C)[C@@H](O)CC1=O)[C@H](C)C[C@@H]2OC (single isomer, unassigned) [Example 133A]",–
9.12,–,CC[C@@H]1/C=C(\C)C[C@H](C)C[C@H](OC)[C@H]2O[C@@](O)(C(=O)C(=O)N3CCCC[C@H]3C(=O)O[C@H](/C(C)=C/[C@@H]3CC[C@H](SC)[C@H](OC)C3)[C@H](C)[C@@H](O)CC1=O)[C@H](C)C[C@@H]2OC [Example 90],–
–,8.39,CC[C@@H]1/C=C(\C)C[C@H](C)C[C@H](OC)[C@H]2O[C@@](O)(C(=O)C(=O)N3CCCC[C@H]3C(=O)O[C@H](/C(C)=C/[C@@H]3CC[C@H](SC(=O)C(=O)OC)[C@H](OC)C3)[C@H](C)[C@@H](O)CC1=O)[C@H](C)C[C@@H]2OC [Example 111],–
–,8.55,CC[C@@H]1/C=C(\C)C[C@H](C)C[C@H](OC)[C@H]2O[C@@](O)(C(=O)C(=O)N3CCCC[C@H]3C(=O)O[C@H](/C(C)=C/[C@@H]3CC[C@H](SC(=O)[C@H](C)O)[C@H](OC)C3)[C@H](C)[C@@H](O)CC1=O)[C@H](C)C[C@@H]2OC [Example 123],–
–,8.70,CC[C@@H]1/C=C(\C)C[C@H](C)C[C@H](OC)[C@H]2O[C@@](O)(C(=O)C(=O)N3CCCC[C@H]3C(=O)O[C@H](/C(C)=C/[C@@H]3CC[C@H](SC(=O)[C@@H](C)O)[C@H](OC)C3)[C@H](C)[C@@H](O)CC1=O)[C@H](C)C[C@@H]2OC [Example 124],–
–,8.46,CC[C@@H]1/C=C(\C)C[C@H](C)C[C@H](OC)[C@H]2O[C@@](O)(C(=O)C(=O)N3CCCC[C@H]3C(=O)O[C@H](/C(C)=C/[C@@H]3CC[C@H](SC(=O)CO)[C@H](OC)C3)[C@H](C)[C@@H](O)CC1=O)[C@H](C)C[C@@H]2OC [Example 125],–
7.81,–,CC[C@@H]1/C=C(\C)C[C@H](C)C[C@H](OC)[C@H]2O[C@@](O)(C(=O)C(=O)N3CCCC[C@H]3C(=O)O[C@H](/C(C)=C/[C@@H]3CC[C@H]([S+](C)[O-])[C@H](OC)C3)[C@H](C)[C@@H](O)CC1=O)[C@H](C)C[C@@H]2OC (stereo partly shown) [Example 128],–
8.94,–,CC[C@@H]1/C=C(\C)C[C@H](C)C[C@H](OC)[C@H]2O[C@@](O)(C(=O)C(=O)N3CCCC[C@H]3C(=O)O[C@H](/C(C)=C/[C@@H]3CC[C@H](S(C)(=O)=O)[C@H](OC)C3)[C@H](C)[C@@H](O)CC1=O)[C@H](C)C[C@@H]2OC [Example 129],–
9.24,–,CC[C@@H]1/C=C(\C)C[C@H](C)C[C@H](OC)[C@H]2O[C@@](O)(C(=O)C(=O)N3CCCC[C@H]3C(=O)O[C@H](/C(C)=C/[C@@H]3CC[C@H](SCSC)[C@H](OC)C3)[C@H](C)[C@@H](O)CC1=O)[C@H](C)C[C@@H]2OC [Example 130],–
8.28,–,CC[C@@H]1/C=C(\C)C[C@H](C)C[C@H](OC)[C@H]2O[C@@](O)(C(=O)C(=O)N3CCCC[C@H]3C(=O)O[C@H](/C(C)=C/[C@@H]3CC[C@H](SCOC)[C@H](OC)C3)[C@H](C)[C@@H](O)CC1=O)[C@H](C)C[C@@H]2OC [Example 131],–
